Calls of active or inactive are those of the source.
Experiments:
Assay type in all cases: functional, organism-based
Rhizomucor miehei = assay: Antifungal activity against Mucor miehei
Candida albicans = assay: Antifungal activity against Candida albicans
Staphylococcus aureus = assay: Antibacterial activity against Staphylococcus aureus
[1] = tested on: Streptomyces viridochromogenes; assay: Antibacterial activity against Streptomyces viridochromogenes
Chlorella vulgaris = assay: Antialgal activity against Chlorella vulgaris
Chlorella sorokiniana = assay: Antialgal activity against Chlorella sorokiniana
Bacillus subtilis = assay: Antibacterial activity against Bacillus subtilis
Escherichia coli = assay: Antibacterial activity against Escherichia coli
Desmodesmus subspicatus = assay: Antialgal activity against Scenedesmus subspicatus

Measured: Activity

C[C@@H](O)[C@@]1(C)NC(=O)c2ccccc2N1 (relative stereo)
inactive: all assays above

C[C@@H](O)[C@]1(C)NC(=O)c2ccccc2N1 (relative stereo)
inactive: all assays above

From ChEMBL document CHEMBL1151247, “Quinazolin-4-one derivatives from Streptomyces isolates” (J Nat Prod, 2004)
